In article PMC11871328 (Communications Biology, 2025):

Assays:
[1] = in words; from earlier studies; cited from earlier work
[2] = system: BAG-1:HSP70 interaction; details: in words; from earlier studies; cited from earlier work
[3] = system: MCF-7 breast cancer cells; experiment: MTT cell viability assay, MCF-7; assay type: cell-based, human; details: in words

| Compound | Solubility in water [1] | Inhibition of BAG-1:HSP70 interaction [2] | Effect on viability of MCF-7 cells [3] |
| --- | --- | --- | --- |
| CCNc1ccc(-c2nc3ccc(C)cc3s2)cc1 [Thio-2, N-Ethyl-4-(6-methyl-1,3-benzothiazol-2-yl)aniline] | poor solubility in water | moderate inhibition |  |
| N=C(N)NCCC[C@H](NC(=O)CN)C(=O)N[C@@H](CCCCN)C(=O)N[C@@H](CCCCN)C(=O)N[C@@H](CCCNC(=N)N)C(=O)N[C@@H](CCCNC(=N)N)C(=O)N[C@@H](CCC(N)=O)C(=O)N[C@@H](CCCNC(=N)N)C(=O)N[C@@H](CCCNC(=N)N)C(=O)N[C@@H](CCCNC(=N)N)C(=O)N1CCC[C@H]1C(=O)N[C@@H](CCC(N)=O)C(N)=O [TAT only] |  |  | did not affect the viability of the cells |
